Results reported in US4175081A, “5-Substituted thiadiazole ureas” (priority 1977, dated 1979).

How the values were obtained:
Crabgrass (CG) [1] = experiment: Pre-emergence herbicide test; type: in vivo, Digitaria sanquinalis; conditions: Digitaria sanguinalis, pre-emergence, 336 h, two weeks after treatment
How it was run: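 Crabgrass (Digitaria sanquinalis) was surface seeded in 3' plastic pots of potting soil, covered with screened soil, and watered by sub-irrigation in greenhouse trays. Pots were seeded one day before spraying in a hood with a moving belt and fixed nozzle. Plants stayed in the greenhouse on sub-irrigation, and pre-emergence control was rated visually two weeks after treatment.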

[2] = tested on: Yellow foxtail grass (YF); experiment: Pre-emergence herbicide test; type: in vivo, Setaria glauca; conditions: Setaria, 336 h, 2 lb/acre, two weeks after treatment
How it was run: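 Seeds surface-sown in potting soil one day before spraying; compounds applied pre-emergence at 8 or 4 lbs/acre in 38 gallons/acre spray. Pots held in greenhouse with sub-irrigation only. Injury or control rated visually two weeks after treatment.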

Johnson grass (JG) [3] = experiment: Pre-emergence herbicide test; type: in vivo, Sorgum helepense; conditions: Sorghum halepense, 336 h, two weeks after treatment
How it was run: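 Pots seeded one day before spraying; compound applied pre-emergence at 8 lbs/acre (or 4 lbs/acre) in 38 gallons/acre spray volume. Sub-irrigated in greenhouse; injury/control rated visually two weeks after treatment.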

Barnyard grass (BG) [4] = experiment: Pre-emergence herbicide test; type: in vivo; conditions: Echinochloa crus-galli, 336 h, two weeks after treatment
How it was run: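 Barnyard grass surface-seeded in potting soil and sprayed pre-emergence one day after seeding, at 8 or 4 lb compound/acre in 38 gal/acre spray volume. Pots kept in greenhouse with sub-irrigation only; injury or control rated visually two weeks after treatment.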

Amaranth pigweed (PW) [5] = experiment: Pre-emergence herbicide test; type: in vivo, Amaranthus retroflexus; conditions: 336 h, 2 lb/acre, two weeks after treatment
How it was run: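 Pigweed was surface-seeded in potted soil one day before spraying at 8 lbs compound per acre, or 4 lbs/acre, in 38 gallons per acre. Pots were kept in the greenhouse with sub-irrigation only; injury or control was rated visually two weeks after treatment.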

Turnip (TP) [6] = experiment: Pre-emergence herbicide test; type: in vivo, Brassica sp.; conditions: Brassica rapa, pre-emergence, 336 h, two weeks after treatment
How it was run: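 Turnip (Brassica sp.) seeds were surface sown in 3' plastic pots of potting soil, covered with a thin layer of screened soil, and sub-irrigated in greenhouse trays. Pots were seeded one day ahead of treatment, sprayed pre-emergence under a hood with a fixed nozzle and moving belt, then kept in the greenhouse.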

Cotton (CT) [7] = experiment: Pre-emergence herbicide test; type: in vivo, Gossypium hirsutum var. DPL smooth leaf; conditions: Gossypium hirsutum, 336 h, two weeks after treatment
How it was run: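 Crop and weed species seeded one day before treatment, then sprayed pre-emergence at 8 lbs actual compound per acre (also 4 lbs/acre formulations) in 38 gallons per acre. Pots kept in greenhouse with sub-irrigation only; injury or control visually rated two weeks after treatment.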

Corn (CN) [8] = experiment: Pre-emergence herbicide test; type: in vivo; conditions: Zea mays, 336 h, two weeks after treatment
How it was run: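 Four corn seeds per pot, sown at seed-diameter depth one day before spraying, got soil surface treatment at 8 lbs/acre (4 lbs/acre formulations also prepared) in 38 gallons/acre. Pots were greenhouse-held with sub-irrigation only. Injury or control was scored visually two weeks after treatment.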

Bean (BN) [9] = experiment: Pre-emergence herbicide test; type: in vivo, Phaseolus vulgaris var. Black Valentine; conditions: Phaseolus vulgaris, 336 h, two weeks after treatment
How it was run: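 Black Valentine bean was seeded in potting soil one day before spraying. Compound was applied pre-emergence at 8 lbs/acre (also 4 lbs/acre) in 38 gallons per acre. Plants were sub-irrigated and injury or control was rated visually after two weeks.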

Crabgrass (CG) [10] = experiment: Post-emergence herbicide test; type: in vivo, Digitaria sanquinalis; conditions: Digitaria sanguinalis, post-emergence, 336 h, two weeks after treatment
How it was run: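 Crabgrass (Digitaria sanquinalis) was surface seeded individually in 3' plastic pots of potting soil, covered with screened soil, and watered by sub-irrigation in greenhouse trays. Planting was staggered so seedlings reached the target stage together. Post-emergence sprays were applied in a hood with a removable belt and fixed nozzle, and control was visually rated two weeks after treatment.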

[11] = tested on: Yellow foxtail grass (YF); experiment: Post-emergence herbicide test; type: in vivo, Setaria glauca; conditions: Setaria, 336 h, 2 lb/acre, two weeks after treatment
How it was run: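 Potted seedlings grown in greenhouse, planting staggered to reach the target stage together, then sprayed post-emergence at 8 lbs actual compound/acre in 38 gallons/acre (4 lbs/acre formulations also prepared). Sub-irrigated afterwards. Injury or control rated visually two weeks after treatment.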

Johnson grass (JG) [12] = experiment: Post-emergence herbicide test; type: in vivo, Sorgum helepense; conditions: Sorghum halepense, 336 h, two weeks after treatment
How it was run: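 Greenhouse pot-grown seedlings sprayed post-emergence at 8 lbs compound per acre (some at 4 lbs/acre) in 38 gallons per acre spray volume. Sub-irrigated thereafter. Injury/control rated visually two weeks after treatment.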

Barnyard grass (BG) [13] = experiment: Post-emergence herbicide test; type: in vivo; conditions: Echinochloa crus-galli, 336 h, 2 lb/acre, two weeks after treatment
How it was run: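 Greenhouse pot-grown barnyard grass seedlings sprayed post-emergence at 8 lbs active compound per acre (some at 4 lbs/acre) in 38 gallons per acre, then sub-irrigated. Injury or control rated visually two weeks after treatment.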

Amaranth pigweed (PW) [14] = experiment: Post-emergence herbicide test; type: in vivo, Amaranthus retroflexus; conditions: 336 h, 2 lb/acre, two weeks after treatment
How it was run: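 Pot-grown pigweed was sprayed post-emergence at the 1–2 true-leaf stage with compound at rates equivalent to 8 lbs per acre (formulations also prepared for 4 lbs/acre) in 38 gallons per acre, using a hood with fixed nozzle. Plants were sub-irrigated in the greenhouse, and injury or control was rated visually two weeks after treatment.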

Turnip (TP) [15] = experiment: Post-emergence herbicide test; type: in vivo, Brassica sp.; conditions: Brassica rapa, post-emergence, 336 h, two weeks after treatment
How it was run: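 A greenhouse post-emergence herbicide test on turnip. Seeds were sown on the surface of potting soil in 3' plastic pots, lightly covered with screened soil and watered from below. Planting was timed so seedlings had 1 or 2 true leaves above the cotyledons at spraying, done in a hood with a fixed nozzle. Control or injury was scored by eye after two weeks.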

Cotton (CT) [16] = experiment: Post-emergence herbicide test; type: in vivo, Gossypium hirsutum var. DPL smooth leaf; conditions: Gossypium hirsutum, post-emergence, 336 h, two weeks after treatment
How it was run: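 Cotton (Gossypium hirsutum var. DPL smooth leaf) was grown in 3' plastic pots of potting soil, four seeds per pot, planted at a depth equal to the seed diameter and watered by sub-irrigation. At the stage of expanded cotyledons with the first true leaf 1' long, plants were sprayed post-emergence in a hood with a fixed nozzle over a moving belt. Percent control was rated visually two weeks later.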

Corn (CN) [17] = experiment: Post-emergence herbicide test; type: in vivo; conditions: Zea mays, 336 h, two weeks after treatment
How it was run: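 Greenhouse seedlings grown in potting soil and sprayed post-emergence at 8 lbs compound/acre (formulations also made for 4 lbs/acre) in 38 gallons/acre spray volume. Watering by sub-irrigation only. Injury or control rated visually two weeks after treatment.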

Bean (BN) [18] = experiment: Post-emergence herbicide test; type: in vivo, Phaseolus vulgaris var. Black Valentine; conditions: Phaseolus vulgaris, post-emergence, 336 h, two weeks after treatment
How it was run: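 Snapbean (Phaseolus vulgaris var. Black Valentine) was tested post-emergence. Four seeds were sown in 3' plastic pots of potting soil at a depth equal to the seed diameter, then sub-irrigated in greenhouse trays. Planting dates were staggered so plants were sprayed once primary leaves had expanded, with the growing point at the primary leaf nodes.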

[19] = Acute oral toxicity in rats; conditions: rat, in vivo

CNC(=O)Nc1nnc(C(C)(C)C)s1 [Example 86]
pest or weed control (Crabgrass (CG) [1]; 2 lb/acre): 90%
pest or weed control at 8966.8 g/ha (Crabgrass (CG) [1]; 8 lb/acre): 100%
pest or weed control at 2241.7 g/ha [2]: 90%
pest or weed control at 2241.7 g/ha (Johnson grass (JG) [3]; 2 lb/acre): 60%
pest or weed control at 8966.8 g/ha (Johnson grass (JG) [3]; 8 lb/acre): 50%
pest or weed control at 2241.7 g/ha (Barnyard grass (BG) [4]; 2 lb/acre): 60%
pest or weed control at 8966.8 g/ha (Barnyard grass (BG) [4]; 8 lb/acre): 80%
pest or weed control at 2241.7 g/ha (Amaranth pigweed (PW) [5]): 100%
pest or weed control at 2241.7 g/ha (Turnip (TP) [6]; 2 lb/acre): 100%
pest or weed control at 8966.8 g/ha (Turnip (TP) [6]; 8 lb/acre): 100%
pest or weed control at 2241.7 g/ha (Cotton (CT) [7]; 2 lb/acre): 10%
pest or weed control at 8966.8 g/ha (Cotton (CT) [7]; 8 lb/acre): 50%
pest or weed control at 2241.7 g/ha (Corn (CN) [8]; 2 lb/acre): 10%
pest or weed control at 8966.8 g/ha (Corn (CN) [8]; 8 lb/acre): 60%
pest or weed control at 2241.7 g/ha (Bean (BN) [9]; 2 lb/acre): 30%
pest or weed control at 8966.8 g/ha (Bean (BN) [9]; 8 lb/acre): 100%
pest or weed control (Crabgrass (CG) [10]; 2 lb/acre): 50%
pest or weed control at 8966.8 g/ha (Crabgrass (CG) [10]; 8 lb/acre): 80%
pest or weed control [11]: 70%
pest or weed control (Johnson grass (JG) [12]; 2 lb/acre): 80%
pest or weed control at 8966.8 g/ha (Johnson grass (JG) [12]; 8 lb/acre): 100%
pest or weed control at 2241.7 g/ha (Barnyard grass (BG) [13]): 50%
pest or weed control at 2241.7 g/ha (Amaranth pigweed (PW) [14]): 100%
pest or weed control at 2241.7 g/ha (Turnip (TP) [15]; 2 lb/acre): 100%
pest or weed control at 8966.8 g/ha (Turnip (TP) [15]; 8 lb/acre): 100%
pest or weed control at 2241.7 g/ha (Cotton (CT) [16]; 2 lb/acre): 100%
pest or weed control at 8966.8 g/ha (Cotton (CT) [16]; 8 lb/acre): 100%
pest or weed control (Corn (CN) [17]; 2 lb/acre): 40%
pest or weed control at 8966.8 g/ha (Corn (CN) [17]; 8 lb/acre): 100%
pest or weed control at 2241.7 g/ha (Bean (BN) [18]; 2 lb/acre): 100%
pest or weed control at 8966.8 g/ha (Bean (BN) [18]; 8 lb/acre): 100%
LD50 [19]: 2700 mg/kg
